Reference: ChEMBL document CHEMBL4422618, “Translational impact of novel widely pharmacological characterized mofezolac-derived COX-1 inhibitors combined with bortezomib on human multiple myeloma cell lines viability” (Eur J Med Chem, 2019)
Calls of active or inactive are those of the source. No cut-off for these calls is given here.

Key:
NCI-H929 [1] = experiment: Induction of apoptosis in human NCI-H929 cells assessed as early apoptotic cells at 42 nM after 48 hrs by Annexin-V/propidium iodide staining based flow cytometric method (reference value: 17.1%); type: functional
NCI-H929 [2] = experiment: Induction of apoptosis in human NCI-H929 cells assessed as early apoptotic cells at 42 nM after 48 hrs in presence of bortezomib by Annexin-V/propidium iodide staining based flow cytometric method (reference value: 17.1%); type: functional
NCI-H929 [3] = experiment: Induction of apoptosis in human NCI-H929 cells assessed as necrotic cells at 42 nM after 48 hrs by Annexin-V/propidium iodide staining based flow cytometric method (reference value: 0.0034%); type: functional
NCI-H929 [4] = experiment: Induction of apoptosis in human NCI-H929 cells assessed as late apoptotic cells at 42 nM after 48 hrs in presence of bortezomib by Annexin-V/propidium iodide staining based flow cytometric method (reference value: 0.23%); type: functional
NCI-H929 [5] = experiment: Cytotoxicity against human NCI-H929 cells assessed as reduction in cell viability at 42 nM after 48 hrs by CCK8 assay; type: functional, cell-based
Plasma [6] = experiment: Anticoagulant activity in human platelet poor plasma assessed as activated partial thromboplastin time at 100 uM incubated for 15 mins at room temperature and subsequent incubation for 2 mins at 37 degreeC followed by cephalin addition and measured after 2 mins for every secs in presence of CaCl2; type: functional
RPMI-8226 [7] = experiment: Cell cycle arrest in human RPMI8226 cells assessed as accumulation at G0/G1 phase at 42 nM after 48 hrs by propidium iodide/RNase staining based flow cytometric method; type: functional
[8] = biological target: T1, Prostaglandin G/H synthase 1 (Ovis aries) (UniProt P05979); experiment: Inhibition of ovine COX1 at 50 uM using arachidonic acid as substrate by colorimetric assay relative to control
T1 sequence (whole entry): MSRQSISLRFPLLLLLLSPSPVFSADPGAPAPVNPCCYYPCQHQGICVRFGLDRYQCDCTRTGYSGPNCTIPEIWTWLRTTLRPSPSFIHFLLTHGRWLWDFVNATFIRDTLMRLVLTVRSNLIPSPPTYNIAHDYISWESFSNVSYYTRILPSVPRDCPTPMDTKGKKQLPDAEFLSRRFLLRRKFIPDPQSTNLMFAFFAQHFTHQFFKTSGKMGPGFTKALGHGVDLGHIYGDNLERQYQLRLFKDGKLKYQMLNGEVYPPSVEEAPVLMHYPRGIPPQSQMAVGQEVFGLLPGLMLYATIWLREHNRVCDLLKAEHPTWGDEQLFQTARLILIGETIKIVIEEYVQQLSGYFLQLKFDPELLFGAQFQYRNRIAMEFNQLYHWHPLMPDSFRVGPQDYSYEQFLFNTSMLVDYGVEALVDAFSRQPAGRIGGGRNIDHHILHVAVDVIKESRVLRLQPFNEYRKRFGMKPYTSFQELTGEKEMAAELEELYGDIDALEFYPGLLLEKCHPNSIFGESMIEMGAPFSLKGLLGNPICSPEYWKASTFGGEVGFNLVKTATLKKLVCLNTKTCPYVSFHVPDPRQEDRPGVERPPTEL

RPMI-8226 [9] = experiment: Induction of apoptosis in human RPMI8226 cells assessed as necrotic cells at 42 nM after 48 hrs in presence of bortezomib by Annexin-V/propidium iodide staining based flow cytometric method (reference value: 0.090%); type: functional
RPMI-8226 [10] = experiment: Cell cycle arrest in human RPMI8226 cells assessed as accumulation at S phase at 42 nM in presence of bortezomib after 48 hrs by propidium iodide/RNase staining based flow cytometric method relative to bortezomib; type: functional
RPMI-8226 [11] = experiment: Induction of apoptosis in human RPMI8226 cells assessed as viable cells at 42 nM after 48 hrs in presence of bortezomib by Annexin-V/propidium iodide staining based flow cytometric method (reference value: 98.7%); type: functional; settings: RPMI-8226, 48 h, read-out: Activity
NCI-H929 [12] = experiment: Induction of apoptosis in human NCI-H929 cells assessed as viable cells at 42 nM after 48 hrs by Annexin-V/propidium iodide staining based flow cytometric method (reference value: 82.6%); type: functional; settings: NCI-H929, 48 h, read-out: Activity
RPMI-8226 [13] = experiment: Induction of apoptosis in human RPMI8226 cells assessed as early apoptotic cells at 42 nM after 48 hrs in presence of bortezomib by Annexin-V/propidium iodide staining based flow cytometric method (reference value: 1.05%); type: functional
RPMI-8226 [14] = experiment: Potentiation of bortezomib-induced cytotoxicity against human RPMI8226 cells assessed as reduction in cell viability at 42 nM after 48 hrs in presence of bortezomib by CCK8 assay; type: functional
NCI-H929 [15] = experiment: Induction of apoptosis in human NCI-H929 cells assessed as late apoptotic cells at 42 nM after 48 hrs by Annexin-V/propidium iodide staining based flow cytometric method (reference value: 0.23%); type: functional
[16] = Genotoxicity in Escherichia coli PQ37 at 500 uM after overnight incubation by SOS chromotest; type: toxicity
[17] = Genotoxicity in Escherichia coli PQ35 at 500 uM after overnight incubation by SOS chromotest; type: toxicity
[18] = biological target: T2, Prostaglandin G/H synthase 1 (Ovis aries, UniProt P05979); experiment: Inhibition of ovine COX1 using arachidonic acid as substrate by colorimetric assay
T2 sequence (P05979 whole entry): T1 sequence (whole entry)

NCI-H929 [19] = experiment: Cell cycle arrest in human NCI-H929 cells assessed as accumulation at G0/G1 phase at 42 nM in presence of bortezomib after 48 hrs by propidium iodide/RNase staining based flow cytometric method relative to bortezomib alone; type: functional
RPMI-8226 [20] = experiment: Induction of apoptosis in human RPMI8226 cells assessed as late apoptotic cells at 42 nM after 48 hrs in presence of bortezomib by Annexin-V/propidium iodide staining based flow cytometric method (reference value: 0.21%); type: functional
RPMI-8226 [21] = experiment: Cytotoxicity against human RPMI8226 cells assessed as reduction in cell viability at 1.7 uM after 48 hrs by CCK8 assay relative to control; type: functional
[22] = Hemolytic activity in erythrocytes (unknown origin) at 100 uM after 3 hrs by spectrophotometric analysis; type: ADME, cell-based, Erythrocyte; settings: read-out: Activity
NCI-H929 [23] = experiment: Induction of apoptosis in human NCI-H929 cells assessed as viable cells at 42 nM after 48 hrs in presence of bortezomib by Annexin-V/propidium iodide staining based flow cytometric method (reference value: 82.6%); type: functional; settings: NCI-H929, 48 h, read-out: Activity
RPMI-8226 [24] = experiment: Cell cycle arrest in human RPMI8226 cells assessed as reduction in accumulation at G2/M phase at 42 nM in presence of bortezomib after 48 hrs by propidium iodide/RNase staining based flow cytometric method relative to bortezomib; type: functional
RPMI-8226 [25] = experiment: Cell cycle arrest in human RPMI8226 cells assessed as accumulation at G0/G1 phase at 42 nM in presence of bortezomib after 48 hrs by propidium iodide/RNase staining based flow cytometric method relative to bortezomib; type: functional
NCI-H929 [26] = experiment: Potentiation of bortezomib-induced cytotoxicity against human NCI-H929 cells assessed as reduction in cell viability at 42 nM after 48 hrs in presence of bortezomib by CCK8 assay; type: functional, cell-based
Plasma [27] = experiment: Anticoagulant activity in human platelet poor plasma assessed as prothrombin time at 100 uM incubated for 15 mins at room temperature and subsequent incubation for 2 mins at 37 degreeC followed by PBS addition and measured after 3 mins for every secs in presence of calcium thromboplastin; type: functional

Molecule C=Cc1onc(-c2ccc(OC)cc2)c1-c1ccc(OC)cc1 has an Activity (NCI-H929 [1]) of 16.9%, an Activity (NCI-H929 [2]) of 60.6% and an Activity (NCI-H929 [3]) of 0.012%. For the same molecule, the Activity (NCI-H929 [4]) was 0.22%, the Activity (NCI-H929 [5]) was “inactive” and the APTT (Plasma [6]) was 51.2 s. The Activity (RPMI-8226 [7]) was “inactive”, the inhibition [8] was 100% and the Activity (RPMI-8226 [9]) was 0.01%. The Activity (RPMI-8226 [10]) was “Active”, the viability at 0.042 µM (RPMI-8226 [11]) was 89.9% and the viability at 0.042 µM (NCI-H929 [12]) was 83%. It also gave an Activity (RPMI-8226 [13]) of 9.68%, an Activity (RPMI-8226 [14]) of 66% and an Activity (NCI-H929 [15]) of 0.11%. For the same molecule, the Activity [16] was “Non-Toxic”, the Activity [17] was “Non-Toxic” and the IC50 [18] was 42 nM. The Activity (NCI-H929 [19]) was 15%, the Activity (RPMI-8226 [20]) was 0.37% and the Activity (RPMI-8226 [21]) was 4%. The hemolysis at 3 h, 100 µM [22] was 0%, the viability at 0.042 µM (NCI-H929 [23]) was 39.2% and the Activity (RPMI-8226 [24]) was “Active”. For the same molecule, the Activity (RPMI-8226 [25]) was “Active”, the Activity (NCI-H929 [26]) was “inactive” and the PT (Plasma [27]) was 13.7 s.
